{"source": "patent US8574563B2", "about": "(Bristol-Myers Squibb Company, priority 2006, dated 2013)"}
{"system": "HCV 1b-377-neo replicon cells", "experiment": "HCV replicon assay, HCV 1b-377-neo replicon cells (1b FRET)", "format": "cell-based, Hepatitis C virus genotype 1b", "details": "Hepatitis C virus, HCV 1b-377-neo replicon cells; HCV 1b genotype; read-out: EC50 range against HCV 1b (Table 2, Range)", "procedure,_shortened": "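Compounds were tested in genotype 1b subgenomic replicon cells carrying a neomycin marker, alongside a matched replicon line with an NS5A Y2065H substitution that confers resistance to a reference NS5A inhibitor.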", "units": {"EC50": "nM"}}
{"smiles": "COC(=O)N[C@H](C(=O)N1CCC[C@H]1c1ncc(-c2ccc(-c3ccc(-c4cnc([C@@H]5CCCN5C(=O)[C@H]5CC[C@@H](NC(=O)OC)CC5)[nH]4)cc3)cc2)[nH]1)C(C)C", "note": "[cj-69, methyl ((1S)-1-(((2S)-2-(5-(4′-(2-((2S)-1-((cis-4-((methoxycarbonyl)amino)cyclohexyl)carbonyl)-2-pyrrolidinyl)-1H-imidazol-5-yl)-4-biphenylyl)-1H-imidazol-2-yl)-1-pyrrolidinyl)carbonyl)-2-methylpropyl)carbamate]", "EC50": "0.001 to 0.999"}
{"smiles": "CC(C)[C@@H](O)C(=O)N1CCC[C@H]1c1ncc(-c2ccc(-c3ccc(-c4cnc([C@@H]5CCCN5C(=O)[C@H](O)C(C)C)[nH]4)cc3)cc2)[nH]1", "note": "[Example 16, (2R,2′R)-1,1′-(4,4′-biphenyldiylbis(1H-imidazole-5,2-diyl(2S)-2,1-pyrrolidinediyl))bis(3-methyl-1-oxo-2-butanol)]", "EC50": "1 to 99"}
{"smiles": "COC(=O)N[C@@H](C)C(=O)N1CCC[C@H]1c1ncc(-c2ccc(-c3ccc(-c4cnc([C@@H]5CCCN5C(=O)[C@H](C)NC(=O)OC)[nH]4)c(F)c3)cc2)[nH]1", "note": "[Example D45, methyl ((1S)-2-((2S)-2-(5-(3′-fluoro-4′-(2-((2S)-1-(N-(methoxycarbonyl)-L-alanyl)-2-pyrrolidinyl)-1H-imidazol-5-yl)-4-biphenylyl)-1H-imidazol-2-yl)-1-pyrrolidinyl)-1-methyl-2-oxoethyl)carbamate]", "EC50": "0.001 to 0.999"}
{"smiles": "COC(=O)N[C@@H](C(=O)N1CCC[C@H]1c1ncc(-c2ccc(-c3ccc(-c4cnc([C@@H]5CCCN5C(=O)[C@H](NC(=O)OC)c5ccccc5)[nH]4)cc3CN(C)C)cc2)[nH]1)c1ccccc1", "note": "[Example M121]", "EC50": "100 to 999"}
{"smiles": "COC(=O)N[C@H](C(=O)N1CCC[C@@H]1c1ncc(-c2ccc(-c3ccc(-c4cnc([C@@H]5CCCN5C(=O)[C@@H](NC(=O)OC)C(C)C)[nH]4)cc3)cc2)[nH]1)C(C)C", "note": "[Example M28-2, methyl ((1S)-1-(((2S)-2-(5-(4′-(2-((2R)-1-((2S)-2-((methoxycarbonyl)amino)-3-methylbutanoyl)-2-pyrrolidinyl)-1H-imidazol-5-yl)-4-biphenylyl)-1H-imidazol-2-yl)-1-pyrrolidinyl)carbonyl)-2-methylpropyl)carbamate]", "EC50": "100 to 999"}
{"smiles": "COC(=O)N[C@@H](C(=O)N[C@@H](C)c1ncc(-c2ccc(-c3ccc(-c4cnc([C@H](C)NC(=O)[C@H](NC(=O)OC)c5ccccc5)[nH]4)cn3)cc2)[nH]1)c1ccccc1", "note": "[Example 152j-23, methyl ((1R)-2-(((1S)-1-(5-(6-(4-(2-((1S)-1-(((2R)-2-((methoxycarbonyl)amino)-2-phenylacetyl)amino)ethyl)-1H-imidazol-5-yl)phenyl)-3-pyridinyl)-1H-imidazol-2-yl)ethyl)amino)-2-oxo-1-phenylethyl)carbamate]", "EC50": "0.001 to 0.999"}
{"smiles": "CCN(CC)[C@@H](C(=O)N1CCC[C@H]1c1ncc(-c2ccc(-c3ccc(-c4cnc([C@@H]5CCCN5C(=O)[C@@H](C)NC(=O)OC)[nH]4)cc3)cc2)[nH]1)c1ccccc1", "note": "[Example M53, methyl ((1R)-2-((2S)-2-(5-(4′-(2-((2S)-1-((2R)-2-(diethylamino)-2-phenylacetyl)-2-pyrrolidinyl)-1H-imidazol-5-yl)-4-biphenylyl)-1H-imidazol-2-yl)-1-pyrrolidinyl)-1-methyl-2-oxoethyl)carbamate]", "EC50": "1 to 99"}
{"smiles": "COC(=O)N[C@@H](CC(=O)OCc1ccccc1)C(=O)N1CCC[C@H]1c1ncc(-c2ccc(-c3ccc(-c4cnc([C@@H]5CCCN5C(=O)[C@@H](NC(=O)OC)C(C)C)[nH]4)cc3)cc2)[nH]1", "note": "[Example M109, benzyl (3S)-3-((methoxycarbonyl)amino)-4-((2S)-2-(5-(4′-(2-((2S)-1-(N-(methoxycarbonyl)-L-valyl)-2-pyrrolidinyl)-1H-imidazol-5-yl)-4-biphenylyl)-1H-imidazol-2-yl)-1-pyrrolidinyl)-4-oxobutanoate]", "EC50": "1 to 99"}
{"smiles": "O=C(OCc1ccccc1)N1CCC[C@H]1c1ncc(-c2ccc(-c3ccc(-c4cnc([C@@H]5CCCN5C(=O)OCc5ccccc5)[nH]4)cc3)cc2)[nH]1", "note": "[Example 109, dibenzyl (2S,2′S)-2,2′-(4,4′-biphenyldiylbis(1H-imidazole-5,2-diyl))di(1-pyrrolidinecarboxylate)]", "EC50": "1 to 99"}
{"smiles": "COC(=O)N[C@@H](C(=O)N1CCC[C@H]1c1ncc(-c2cnc(-c3ccc(-c4[nH]c([C@@H]5CCCN5C(=O)[C@H](NC(=O)OC)c5ccccc5)nc4C(F)(F)F)cc3)nc2)[nH]1)c1ccccc1", "note": "[Example J46, methyl ((1R)-2-((2S)-2-(5-(4-(5-(2-((2S)-1-((2R)-2-((methoxycarbonyl)amino)-2-phenylacetyl)-2-pyrrolidinyl)-1H-imidazol-5-yl)-2-pyrimidinyl)phenyl)-4-(trifluoromethyl)-1H-imidazol-2-yl)-1-pyrrolidinyl)-2-oxo-1-phenylethyl)carbamate]", "EC50": "0.001 to 0.999"}
{"smiles": "COC(=O)N[C@@H](C(=O)N1CCC[C@H]1c1ncc(-c2ccc(-c3ccc(-c4cnc([C@@H]5CCCN5C(=O)[C@H](NC(=O)OC)C(C)C)[nH]4)cc3)cc2)[nH]1)C(C)C", "note": "[Example 26, methyl ((1R)-1-(((2S)-2-(5-(4′-(2-((2S)-1-((2R)-2-((methoxycarbonyl)amino)-3-methylbutanoyl)-2-pyrrolidinyl)-1H-imidazol-5-yl)-4-biphenylyl)-1H-imidazol-2-yl)-1-pyrrolidinyl)carbonyl)-2-methylpropyl)carbamate]", "EC50": "1 to 99"}
{"smiles": "CN(C)C(=O)N[C@@H](C(=O)N1CCC[C@H]1c1nc(-c2ccc(-c3ccc(-c4c[nH]c([C@@H]5CCCN5C(=O)[C@H](NC(=O)N(C)C)c5ccccc5)n4)cc3)cc2)c[nH]1)c1ccccc1", "note": "[Example 24-4a, N′,N′′′-(4,4′-biphenyldiylbis(1H-imidazole-4,2-diyl(2S)-2,1-pyrrolidinediyl((1R)-2-oxo-1-phenyl-2,1-ethanediyl)))bis(1,1-dimethylurea)]", "EC50": "0.001 to 0.999"}
{"smiles": "COC(=O)N[C@H](C(=O)N1[C@@H]2C[C@@H]2C[C@H]1c1nc(-c2ccc(-c3ccc(-c4c[nH]c([C@@H]5C[C@H]6C[C@H]6N5C(=O)[C@@H](NC(=O)OC)C5CC5)n4)cc3)cc2)c[nH]1)C1CC1", "note": "[Example M135, dimethyl (4,4′-biphenyl-diylbis(1H-imidazole-4,2-diyl(1R,3S,5R)-2-azabicyclo[3.1.0]hexane-3,2-diyl((1S)-1-cyclopropyl-2-oxo-2,1-ethanediyl)))biscarbamate]", "EC50": "0.001 to 0.999"}
{"smiles": "COC(=O)N[C@@H](Cc1cscn1)C(=O)N1CCC[C@H]1c1ncc(-c2ccc(-c3ccc(-c4cnc([C@@H]5CCCN5C(=O)[C@@H](NC(=O)OC)[C@@H](C)OC)[nH]4)cc3)cc2)[nH]1", "note": "[cj-78, methyl ((1S)-2-((2S)-2-(5-(4′-(2-((2S)-1-((2S,3R)-3-methoxy-2-((methoxycarbonyl)amino)butanoyl)-2-pyrrolidinyl)-1H-imidazol-5-yl)-4-biphenylyl)-1H-imidazol-2-yl)-1-pyrrolidinyl)-2-oxo-1-(1,3-thiazol-4-ylmethyl)ethyl)carbamate]", "EC50": "0.001 to 0.999"}
{"smiles": "O=C(c1cscn1)N1CCC[C@H]1c1ncc(-c2ccc(-c3ccc(-c4cnc([C@@H]5CCCN5C(=O)[C@@H](c5ccccc5)N5CCCCC5)[nH]4)cc3)cc2)[nH]1", "note": "[Example 107-11, 1-((1R)-2-oxo-1-phenyl-2-((2S)-2-(5-(4′-(2-((2S)-1-(1,3-thiazo1-4-ylcarbonyl)-2-pyrrolidinyl)-1H-imidazol-5-yl)-4-biphenylyl)-1H-imidazol-2-yl)-1-pyrrolidinyl)ethyl)piperidine]", "EC50": "0.001 to 0.999"}
